Experimental data as given in PubChem BioAssay AID248 (DTP/NCI, 2004).
Where “and” joins values, the source holds several entries; their conditions need not be identical. Equal entries are not always repeated. Inconclusive results and toxic doses are left out. Rule as the data show it: active = T/C of 150% or more; inactive = T/C below 125%. Peptide text beside a SMILES is read from it. * marks the point of attachment. Cbz = O=C(OCc1ccccc1)*

Test system: L1210 leukemia ip in BDF1 mice, survival T/C
Assay: NCI In Vivo Anticancer Drug Screen. Data for tumor model L1210 Leukemia (intraperitoneal) in B6D2F1 (BDF1) mice
Conditions: endpoint: mean survival time, higher = longer survival
Method in brief: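 Transplantable tumor model; survival measured in treated vs vehicle control mice. Value = treated/control.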

[1] = dose: 100.0 mg/kg/injection, schedule: Q04DX003 (ip), vehicle: Klucel (hydroxypropylcellulose) (HPC)
[2] = dose: 200.0 mg/kg/injection, schedule: Q04DX003 (ip), vehicle: Klucel (hydroxypropylcellulose) (HPC)
[3] = dose: 100.0 mg/kg/injection, schedule: Q04DX003 (ip), vehicle: saline with Tween-80
[4] = dose: 200.0 mg/kg/injection, schedule: Q04DX003 (ip), vehicle: saline with Tween-80
[5] = dose: 400.0 mg/kg/injection, schedule: Q04DX003 (ip), vehicle: saline with Tween-80
[6] = dose: 100.0 mg/kg/injection, schedule: Q04DX003 (ip), vehicle: saline
[7] = dose: 200.0 mg/kg/injection, schedule: Q04DX003 (ip), vehicle: saline
[8] = dose: 75.0 mg/kg/injection, schedule: Q01DX001 (ip), vehicle: saline
[9] = dose: 50.0 mg/kg/injection, schedule: Q04DX003 (ip), vehicle: saline
[10] = dose: 100.0 mg/kg/injection, schedule: Q01DX001 (ip), vehicle: saline
[11] = dose: 200.0 mg/kg/injection, schedule: Q01DX001 (ip), vehicle: saline
[12] = dose: 50.0 mg/kg/injection, schedule: Q04DX002 (ip), vehicle: Klucel (hydroxypropylcellulose) (HPC)
[13] = dose: 100.0 mg/kg/injection, schedule: Q04DX002 (ip), vehicle: Klucel (hydroxypropylcellulose) (HPC)
[14] = dose: 200.0 mg/kg/injection, schedule: Q04DX002 (ip), vehicle: Klucel (hydroxypropylcellulose) (HPC)
[15] = dose: 400.0 mg/kg/injection, schedule: Q01DX001 (ip), vehicle: saline
[16] = dose: 100.0 mg/kg/injection, schedule: Q01DX009 (ip), vehicle: saline with Tween-80
[17] = dose: 100.0 mg/kg/injection, schedule: Q04DX002 (ip), vehicle: saline with Tween-80
[18] = dose: 200.0 mg/kg/injection, schedule: Q01DX009 (ip), vehicle: saline with Tween-80
[19] = dose: 200.0 mg/kg/injection, schedule: Q04DX002 (ip), vehicle: saline with Tween-80
[20] = dose: 400.0 mg/kg/injection, schedule: Q04DX002 (ip), vehicle: saline with Tween-80
[21] = dose: 100.0 mg/kg/injection, schedule: Q01DX001 (ip), vehicle: Klucel (hydroxypropylcellulose) (HPC)
[22] = dose: 100.0 mg/kg/injection, schedule: Q01DX009 (ip), vehicle: Klucel (hydroxypropylcellulose) (HPC)
[23] = dose: 200.0 mg/kg/injection, schedule: Q01DX001 (ip), vehicle: Klucel (hydroxypropylcellulose) (HPC)
[24] = dose: 200.0 mg/kg/injection, schedule: Q01DX009 (ip), vehicle: Klucel (hydroxypropylcellulose) (HPC)
[25] = dose: 400.0 mg/kg/injection, schedule: Q01DX001 (ip), vehicle: Klucel (hydroxypropylcellulose) (HPC)
[26] = dose: 400.0 mg/kg/injection, schedule: Q01DX009 (ip), vehicle: Klucel (hydroxypropylcellulose) (HPC)
[27] = dose: 25.0 mg/kg/injection, schedule: Q01DX009 (ip), vehicle: saline with Tween-80
[28] = dose: 50.0 mg/kg/injection, schedule: Q01DX009 (ip), vehicle: saline with Tween-80
[29] = dose: 400.0 mg/kg/injection, schedule: Q04DX003 (ip), vehicle: saline
[30] = dose: 25.0 mg/kg/injection, schedule: Q01DX009 (ip), vehicle: Klucel (hydroxypropylcellulose) (HPC)
[31] = dose: 50.0 mg/kg/injection, schedule: Q01DX009 (ip), vehicle: Klucel (hydroxypropylcellulose) (HPC)

Measured: T/C

CN(C)c1ccc(-c2nc3ccccc3s2)cc1
inactive: dose: 50.0 mg/kg/injection, schedule: Q04DX003 (ip), vehicle: Klucel (hydroxypropylcellulose) (HPC) 105 % of control | [1] 100 % of control | [2] 96 % of control

CC1=N/C(=C/c2ccccc2)C(=O)O1
inactive: [3] 97 % of control | [4] 92 % of control | [5] 98 % of control

CCN(CC)CCN(C)C(=O)C(c1ccccc1)c1ccccc1
inactive: [6] 98 % of control | [7] 93 % of control

CCN(CC)CCN(C)C(=O)C(=O)c1ccccc1
inactive: [8] 98 % of control | dose: 150.0 mg/kg/injection, schedule: Q01DX001 (ip), vehicle: saline 101 % of control

Clc1ccc2c(Cl)ncnc2c1
inactive: dose: 13.0 mg/kg/injection, schedule: Q01DX Z (ip), vehicle: methylcellulose (MC) 100 % of control | dose: 20.0 mg/kg/injection, schedule: Q01DX Z (ip), vehicle: methylcellulose (MC) 100 % of control | dose: 30.0 mg/kg/injection, schedule: Q01DX Z (ip), vehicle: methylcellulose (MC) 104 % of control | dose: 45.0 mg/kg/injection, schedule: Q01DX Z (ip), vehicle: methylcellulose (MC) 105 % of control | dose: 50.0 mg/kg/injection, schedule: Q01DX009 (ip), vehicle: saline 96 % of control | [9] 97 % of control | [10] 99 % of control | dose: 100.0 mg/kg/injection, schedule: Q01DX009 (ip), vehicle: saline 100 % of control | [6] 97 % of control | [11] 91 % of control | [7] 94 % of control

COc1ccccc1NS(=O)(=O)c1ccccc1
inactive: dose: 100.0 mg/kg/injection, schedule: Q01DX001 (ip), vehicle: carboxymethylcellulose (CMC) 92 % of control | dose: 200.0 mg/kg/injection, schedule: Q01DX001 (ip), vehicle: carboxymethylcellulose (CMC) 103 % of control | dose: 400.0 mg/kg/injection, schedule: Q01DX001 (ip), vehicle: carboxymethylcellulose (CMC) 103 % of control

CC(=O)OC/C=C(\C)CCC=O
inactive: dose: 100.0 mg/kg/injection, schedule: Q04DX003 (ip), vehicle: water 98 % of control | dose: 200.0 mg/kg/injection, schedule: Q04DX003 (ip), vehicle: water 102 % of control | dose: 400.0 mg/kg/injection, schedule: Q04DX003 (ip), vehicle: water 100 % of control

CC1C(O)c2ccccc2OC1N1CCOCC1 (stereo not drawn)
inactive: [12] 96 % of control | [13] 100 % of control | [14] 93 % of control

O=C1CC(N2C(=O)C3C4CCC(CC4)C3C2=O)C(=O)N1 (stereo not drawn)
inactive: [3] 96 % of control | [4] 100 % of control | [5] 112 % of control

CSc1ccc(OC(C)=O)cc1C
inactive: [10] 106 % of control | [11] 98 % of control | [15] 96 % of control

Cc1c(Cl)cccc1NC(=O)Oc1ccc(-c2ccccc2)cc1
inactive: dose: 50.0 mg/kg/injection, schedule: Q04DX003 (ip), vehicle: saline with Tween-80 97 % of control | [16] 95 % of control and 97 % of control | [17] 93 % of control and 91 % of control | [3] 101 % of control | [18] 104 % of control and 89 % of control | [19] 96 % of control | [4] 100 % of control | [20] 96 % of control and 103 % of control

COc1cc([N+](=O)[O-])ccc1NC(=O)OCC(Cl)(Cl)Cl
inactive: [21] 98 % of control | [22] 93 % of control and 92 % of control | [13] 95 % of control and 102 % of control | [1] 99 % of control | [23] 100 % of control | [24] 103 % of control and 92 % of control | [14] 98 % of control and 111 % of control | [2] 94 % of control | [25] 96 % of control | [26] 109 % of control and 88 % of control | dose: 400.0 mg/kg/injection, schedule: Q04DX002 (ip), vehicle: Klucel (hydroxypropylcellulose) (HPC) 95 % of control and 98 % of control | dose: 400.0 mg/kg/injection, schedule: Q04DX003 (ip), vehicle: Klucel (hydroxypropylcellulose) (HPC) 105 % of control

CC(C1=C(CCN(C)C)Cc2ccccc21)c1ccccn1 (stereo not drawn)
inactive: [10] 107 % of control

CC1(C)CCC(C#N)=C1N
inactive: dose: 12.5 mg/kg/injection, schedule: Q01DX009 (ip), vehicle: saline with Tween-80 93 % of control | [27] 105 % of control | [28] 88 % of control

CC(NC(=O)OCc1ccccc1)C(=O)NC(CC(N)=O)C(=O)O (stereo not drawn) (Cbz-Ala-Asn-OH; configuration not given here)
inactive: dose: 25.0 mg/kg/injection, schedule: Q04DX002 (ip), vehicle: Klucel (hydroxypropylcellulose) (HPC) 95 % of control | [12] 95 % of control | [13] 95 % of control

O=C1c2ccccc2-c2c(O)cccc21
inactive: [21] 94 % of control | [23] 100 % of control | [25] 96 % of control

O=C(O)CCc1ccccc1
inactive: [9] 98 % of control | [16] 92 % of control | [6] 104 % of control | [18] 95 % of control | [7] 95 % of control | dose: 400.0 mg/kg/injection, schedule: Q01DX009 (ip), vehicle: saline with Tween-80 86 % of control | [29] 98 % of control

Nc1[nH]nc2nc(-c3ccccc3)cnc12
inactive: [27] 121 % of control | [28] 110 % of control | [16] 95 % of control and 102 % of control | [3] 94 % of control | [4] 92 % of control | [5] 92 % of control

CC(C)/C(=N\[N+](C)(C)C)c1ccccc1
inactive: dose: 18.8 mg/kg/injection, schedule: Q04DX003 (ip), vehicle: saline 97 % of control | dose: 37.5 mg/kg/injection, schedule: Q04DX003 (ip), vehicle: saline 100 % of control | [8] 103 % of control | dose: 75.0 mg/kg/injection, schedule: Q04DX003 (ip), vehicle: saline 100 % of control

O=[N+]([O-])c1ccc(/C=N/Nc2ccnc3cc(Cl)ccc23)s1
inactive: [6] 96 % of control | [7] 96 % of control | [29] 96 % of control

COC(=O)C1C2CC3OC(=O)C1(C)C3C2 (stereo not drawn)
inactive: [10] 103 % of control | [11] 98 % of control | [15] 97 % of control

CCC(CO)C(C)C (stereo not drawn)
inactive: [28] 107 % of control | [16] 102 % of control | [18] 93 % of control

Cc1cccc(Cl)c1NC(=O)Nc1cccc(C(=O)O)c1
inactive: [30] 100 % of control | [31] 87 % of control | [22] 90 % of control | [24] 86 % of control | [26] 91 % of control

CCCCCCCCNc1ccc(Cl)cc1
inactive: dose: 100.0 mg/kg/injection, schedule: Q01DX001 (ip), vehicle: saline + alcohol 91 % of control | dose: 200.0 mg/kg/injection, schedule: Q01DX001 (ip), vehicle: saline + alcohol 102 % of control | dose: 400.0 mg/kg/injection, schedule: Q01DX001 (ip), vehicle: saline + alcohol 98 % of control

COc1cc2c(cc1OC)C1(C(=O)c3ccc(OC)c(OC)c3C1=O)N(C(C)=O)C=C2 (stereo not drawn)
inactive: dose: 12.5 mg/kg/injection, schedule: Q01DX009 (ip), vehicle: Klucel (hydroxypropylcellulose) (HPC) 95 % of control | [30] 103 % of control | [31] 100 % of control

O=C1NC(=S)S/C1=C/C=C/c1ccccc1
inactive: [17] 95 % of control | [19] 87 % of control | [20] 98 % of control

CC[N+](CC)(CC)CCCNC(=O)C12CC3CC(CC(C3)C1)C2
inactive: dose: 25.0 mg/kg/injection, schedule: Q04DX002 (ip), vehicle: saline 95 % of control | dose: 50.0 mg/kg/injection, schedule: Q04DX002 (ip), vehicle: saline 101 % of control
